From US20070015743A1, “Quinazoline derivatives as antitumor agents” (priority 2003, published 2007)

How the values were obtained:
erbB2 = target: T1, erbB2 (Homo sapiens, UniProt P04626); experiment: Clone 24 phospho-erbB2 cell assay, Test (c); assay type: cell-based; details: MCF7 derived cell line overexpressing erbB2 (Clone 24 cells); read-out: IC50 (μM) Test (c): Inhibition of erbB2 tyrosine kinase protein phosphorylation
T1 construct: a cell line that overexpresses full length wild type erbB2 protein; expressed in transfected cells; host or cells: MCF7 (breast carcinoma) derived 'Clone 24' cells
T1 sequence (P04626 23-1255): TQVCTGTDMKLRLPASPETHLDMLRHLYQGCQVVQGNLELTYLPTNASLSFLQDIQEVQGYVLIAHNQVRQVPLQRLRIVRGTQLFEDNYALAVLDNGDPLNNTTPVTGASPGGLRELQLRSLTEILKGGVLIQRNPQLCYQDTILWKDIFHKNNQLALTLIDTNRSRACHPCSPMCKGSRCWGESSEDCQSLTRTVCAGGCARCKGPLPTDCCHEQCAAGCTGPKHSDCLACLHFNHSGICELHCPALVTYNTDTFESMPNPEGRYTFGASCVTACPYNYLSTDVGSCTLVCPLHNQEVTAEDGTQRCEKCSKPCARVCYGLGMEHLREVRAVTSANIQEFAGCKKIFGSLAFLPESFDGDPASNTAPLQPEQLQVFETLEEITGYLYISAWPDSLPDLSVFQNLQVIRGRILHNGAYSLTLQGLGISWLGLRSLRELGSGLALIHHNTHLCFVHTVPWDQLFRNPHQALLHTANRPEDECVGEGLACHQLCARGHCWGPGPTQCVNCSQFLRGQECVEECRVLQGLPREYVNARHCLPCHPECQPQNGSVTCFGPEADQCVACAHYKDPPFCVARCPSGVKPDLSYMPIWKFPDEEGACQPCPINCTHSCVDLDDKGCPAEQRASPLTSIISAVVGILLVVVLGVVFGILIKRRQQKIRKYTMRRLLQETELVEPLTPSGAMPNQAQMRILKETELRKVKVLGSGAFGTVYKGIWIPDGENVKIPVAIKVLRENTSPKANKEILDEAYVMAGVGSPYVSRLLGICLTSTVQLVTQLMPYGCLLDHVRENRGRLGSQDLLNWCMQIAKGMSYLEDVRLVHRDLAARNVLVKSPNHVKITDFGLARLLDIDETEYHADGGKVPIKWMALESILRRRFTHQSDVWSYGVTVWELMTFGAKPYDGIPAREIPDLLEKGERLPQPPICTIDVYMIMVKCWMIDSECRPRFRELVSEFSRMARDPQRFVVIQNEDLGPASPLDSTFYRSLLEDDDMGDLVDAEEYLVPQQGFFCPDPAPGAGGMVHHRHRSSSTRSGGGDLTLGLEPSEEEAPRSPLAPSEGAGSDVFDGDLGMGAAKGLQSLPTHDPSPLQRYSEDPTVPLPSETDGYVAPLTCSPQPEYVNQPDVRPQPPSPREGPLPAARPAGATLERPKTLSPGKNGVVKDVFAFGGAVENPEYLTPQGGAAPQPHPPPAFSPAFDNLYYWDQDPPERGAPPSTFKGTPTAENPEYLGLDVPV
Experimental: This immunofluorescence end point assay measures the ability of a test compound to inhibit the phosphorylation of erbB2 in a MCF7 (breast carcinoma) derived cell line which was generated by transfecting MCF7 cells with the full length erbB2 gene using standard methods to give a cell line that overexpresses full length wild type erbB2 protein (hereinafter ‘Clone 24’ cells).
Clone 24 cells were cultured in Growth Medium (phenol red free Dulbecco's modified Eagle's medium (DMEM) containing 10% foetal bovine serum, 2 mM glutamine and 1.2 mg/ml G418) in a 7.5% CO2 air incubator at 37° C. Cells were harvested from T75 stock flasks by washing once in PBS (phosphate buffered saline, pH7.4, Gibco No. 10010-015) and harvested using 2 mls of Trypsin (1.25 mg/ml)/ethylaminediaminetetraacetic acid (EDTA) (0.8 mg/ml) solution. The cells were resuspended in Growth Medium. Cell density was measured using a haemocytometer and viability was calculated using Trypan Blue solution before being further diluted in Growth Medium and seeded at a density of 1×10^4 cells per well (in 100 ul) into clear bottomed 96 well plates (Packard, No. 6005182).
3 days later, Growth Medium was removed from the wells and replaced with 100 ul Assay Medium (phenol red free DMEM, 2 mM glutamine, 1.2 mg/ml G418) either with or without erbB inhibitor compound. Plates were returned to the incubator for 4 hrs and then 20 μl of 20% formaldehyde solution in PBS was added to each well and the plate was left at room temperature for 30 minutes. This fixative solution was removed with a multichannel pipette, 100 μl of PBS was added to each well and then removed with a multichannel pipette and then 50 μl PBS was added to each well. Plates were then sealed and stored for up to 2 weeks at 4° C.
Immunostaining was performed at room temperature. […]
The Fluorescence signal is each well was measured using an Acumen Explorer Instrument (Acumen Bioscience Ltd.), a plate reader that can be used to rapidly quantitate features of images generated by laser-scanning. […]

erbB2 tyrosine kinase = target: T2, erbB2 tyrosine kinase (Homo sapiens, UniProt P04626); experiment: Protein tyrosine kinase phosphorylation assay, Test (a), erbB2; assay type: biochemical; details: read-out: IC50 (μM) Test (a): Inhibition of erbB2 tyrosine kinase protein phosphorylation
T2 construct: Recombinant intracellular fragments of EGFR, erbB2 and erbB4; made in house; host or cells: baculovirus/Sf21 insect cells (cleared lysate used)
T2 sequence (P04626 676-1255 limits assumed): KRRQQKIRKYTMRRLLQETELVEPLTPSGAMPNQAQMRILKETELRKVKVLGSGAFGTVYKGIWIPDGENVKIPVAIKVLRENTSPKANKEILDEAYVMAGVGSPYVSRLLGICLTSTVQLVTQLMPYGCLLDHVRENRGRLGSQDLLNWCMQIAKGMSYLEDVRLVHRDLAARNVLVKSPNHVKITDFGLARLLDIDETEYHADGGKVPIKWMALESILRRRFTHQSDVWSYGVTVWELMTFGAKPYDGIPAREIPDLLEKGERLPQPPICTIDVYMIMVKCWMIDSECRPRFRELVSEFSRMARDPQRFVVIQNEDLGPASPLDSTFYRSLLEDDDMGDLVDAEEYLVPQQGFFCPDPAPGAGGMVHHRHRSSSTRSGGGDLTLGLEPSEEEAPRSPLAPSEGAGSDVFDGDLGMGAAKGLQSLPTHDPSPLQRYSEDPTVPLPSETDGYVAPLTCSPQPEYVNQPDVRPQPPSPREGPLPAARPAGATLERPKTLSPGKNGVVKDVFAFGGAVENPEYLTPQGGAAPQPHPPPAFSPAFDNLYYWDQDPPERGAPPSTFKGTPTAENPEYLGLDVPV
Experimental: (§1) Recombinant intracellular fragments of EGFR, erbB2 and erbB4 (accession numbers X00588, X03363 and L07868 respectively) were cloned and expressed in the baculovirus/Sf21 system. Lysates were prepared from these cells by treatment with ice-cold lysis buffer (20 mM N-2-hydroxyethylpiperizine-N′-2-ethanesulfonic acid (HEPES) pH7.5, 150 mM NaCl, 10% glycerol, 1% Triton X-100, 1.5 mM MgCl2, 1 mM ethylene glycol-bis(β-aminoethyl ether)N′,N′,N′,N′-tetraacetic acid (EGTA), plus protease inhibitors and then cleared by centrifugation.
Constitutive kinase activity of these recombinant proteins was determined by their ability to phosphorylate a synthetic peptide (made up of a random co-polymer of Glutamic Acid, Alanine and Tyrosine in the ratio of 6:3:1). Specifically, Maxisorb™ 96-well immunoplates were coated with synthetic peptide (0.2 μg of peptide in a […] phosphate buffered saline (PBS) solution and incubated at 4° C. overnight). Plates were washed in 50 mM HEPES pH 7.4 at room temperature to remove any excess unbound synthetic peptide. EGFR or erbB2 activities were assessed by incubation in peptide coated plates for 20 minutes at room temperature in 100 mM HEPES pH 7.4 at room temperature, adenosine trisphosphate (ATP) at Km concentration for the respective enzyme, 10 mM MnCl2, 0.1 mM Na3VO4, 0.2 mM DL-dithiothreitol (DTT), 0.1% Triton X-100 with test compound in DMSO (final concentration of 2.5%). […]
The immobilised phospho-peptide product of the reaction was detected by immunological methods. […] After further washing, HRP activity in each well of the plate was measured colorimetrically using 22′-Azino-di-[3-ethylbenzthiazoline sulfonate (6)]diammonium salt crystals (ABTS™ from Roche) as a substrate. Quantification of colour development and thus enzyme activity was achieved by the measurement of absorbance at 405 nm on a Molecular Devices ThermoMax microplate reader. Kinase inhibition for a given compound was expressed as an IC50 value. […] The range of phosphorylation was calculated from the positive (vehicle plus ATP) and negative (vehicle minus ATP) control values.

EGFR tyrosine kinase = target: T3, EGFR tyrosine kinase (Homo sapiens, UniProt P00533); experiment: Protein tyrosine kinase phosphorylation assay, Test (a), EGFR; assay type: biochemical; details: read-out: IC50 (μM) Test (a): Inhibition of EGFR tyrosine kinase protein phosphorylation
T3 construct: Recombinant intracellular fragments of EGFR, erbB2 and erbB4; made in house; host or cells: baculovirus/Sf21 insect cells (cleared lysate used)
T3 sequence (P00533 669-1210 limits assumed): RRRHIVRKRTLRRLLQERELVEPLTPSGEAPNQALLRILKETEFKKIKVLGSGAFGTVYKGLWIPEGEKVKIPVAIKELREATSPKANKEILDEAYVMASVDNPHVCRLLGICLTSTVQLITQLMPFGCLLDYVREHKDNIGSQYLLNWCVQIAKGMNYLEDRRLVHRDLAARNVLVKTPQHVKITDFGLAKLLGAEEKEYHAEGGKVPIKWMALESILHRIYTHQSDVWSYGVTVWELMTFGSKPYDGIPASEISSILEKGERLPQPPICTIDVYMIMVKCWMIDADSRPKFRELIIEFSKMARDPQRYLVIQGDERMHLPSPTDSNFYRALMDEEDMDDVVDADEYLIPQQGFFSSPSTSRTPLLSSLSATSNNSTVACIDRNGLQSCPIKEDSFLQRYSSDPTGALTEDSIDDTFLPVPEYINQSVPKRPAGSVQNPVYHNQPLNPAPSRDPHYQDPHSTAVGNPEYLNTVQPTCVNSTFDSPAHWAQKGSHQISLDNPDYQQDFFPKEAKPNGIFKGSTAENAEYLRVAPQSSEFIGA
Experimental: This test measures the ability of a test compound to inhibit the phosphorylation of a tyrosine containing polypeptide substrate by EGFR tyrosine kinase enzyme.
as §1
Constitutive kinase activity of these recombinant proteins was determined by their ability to phosphorylate a synthetic peptide (made up of a random co-polymer of Glutamic Acid, Alanine and Tyrosine in the ratio of 6:3:1). […]
The immobilised phospho-peptide product of the reaction was detected by immunological methods. […] After further washing, HRP activity in each well of the plate was measured colorimetrically using 22′-Azino-di-[3-ethylbenzthiazoline sulfonate (6)]diammonium salt crystals (ABTS™ from Roche) as a substrate. Quantification of colour development and thus enzyme activity was achieved by the measurement of absorbance at 405 nm on a Molecular Devices ThermoMax microplate reader. […]

Compound	IC50 (erbB2)	IC50 (erbB2 tyrosine kinase)	IC50 (EGFR tyrosine kinase)
CN(C)CC(=O)N1CCC[C@@H]1COc1cccc2ncnc(Nc3ccc(OCc4cncs4)c(Cl)c3)c12 [Example 25, N-[3-Chloro-4-(1,3-thiazol-5-ylmethoxy)phenyl]-5-({(2R)-1-[(dimethylamino)acetyl]pyrrolidin-2-yl}methoxy)quinazolin-4-amine]	1.4 µM	0.048 µM	–
Cc1cccc(COc2ccc(Nc3ncnc4cccc(OC[C@@H]5CCCN5C(=O)CO)c34)cc2Cl)n1 [Example 40]	2.4 µM	0.63 µM	33 µM
O=C(CO)N1CCC[C@H](COc2cccc3ncnc(Nc4ccc(OCc5cscn5)c(Cl)c4)c23)C1 [Example 78, 2-((3S)-3-{[(4-{[3-chloro-4-(1,3-thiazol-4-ylmethoxy)phenyl]amino}quinazolin-5-yl)oxy]methyl}piperidin-1-yl)-2-oxoethanol]	0.19 µM	0.034 µM	2.4 µM
